The values below come from PMC6214487 (Journal of drug design and research, 2018).

Read-outs that look alike come from different tables or passages of the source.

Series [1] concerns HIV-1 isolates from subtypes A, B, and C. Nature of the series: Replication in PBMCs, summary over the three isolates tested. It is filed as cell-based. The conditions noted are these: read-out: Median IC50.
The next series has as its system PBMCs. Kind of series: Toxicity to PBMCs, MTS assay. The conditions noted are these: for Therapeutic Index (CC50/IC50): calculated using the median IC50 across all three isolates.
Series [2] in a line: Toxicity to PBMCs, MTS assay. To be noted: human, primary peripheral blood mononuclear cells (PBMCs). In general terms: Tetrazolium dyes change colour on reduction, which living cells bring about.
Series [3] has as its system HIV-1 pseudovirus CA K70A. Nature of the series: organism not typed. The conditions noted are these: for IC50: read-out: IC50, CA K70A virus. It is filed as cell-based.
Series [4] concerns VSV-G pseudotyped HIV-1 in TZM-bl cells. It is filed as cell-based.
The test system of series [5] is HIV-1 pseudovirus CA wild-type. Kind of series: organism not typed. It is filed as cell-based. To be noted: for IC50: read-out: IC50, Wild-type virus.
Series [6] deals with HIV-1JR-FL Envpseudotyped viruses. Kind of series: Viral production by p24 quantitation. The conditions noted are these: 20 μM, relative to DMSO. It is filed as cell-based.
The next series concerns the target purified recombinant RT (Human immunodeficiency virus type 1 group M subtype B, UniProt P04585). Nature of the series: Colorimetric reverse transcriptase assay kit. To be noted: CX06 15 μM, PF-74 1.5 μM, TMC278 1 nM, relative to DMSO.
A further series has as its system 293T cells. The series is classed as cell-based, human.
Series [7] concerns HIV-1 pseudovirus CA N74D. Kind of series: organism not typed. It is filed as cell-based. The conditions noted are these: for IC50: read-out: IC50, CA N74D virus.
Series [8] relates to HIV-1 pseudovirus CA Q63A. Nature of the series: organism not typed. The series is classed as cell-based. To be noted: for IC50: read-out: IC50, CA Q63A virus.
Series [9] relates to VSV-pseudotyped HIV-1 virus. It is filed as cell-based.
Series [10] has as its system AMLV Envpseudotyped HIV-1. The series is classed as cell-based. To be noted: single round infection assay.
For another series, the target named is HIV-1 CA (Human immunodeficiency virus type 1 group M subtype B, UniProt P12493). To be noted: capsid 30 μM, compound 50 μM, compared to DMSO.
Series [11] relates to HIV-1 pseudovirus CA N57A. Nature of the series: organism not typed. The series is classed as cell-based. To be noted: for IC50: read-out: IC50, CA N57A virus.
Series [12] concerns HIV-1 pseudovirus CA P90A. Kind of series: organism not typed. It is filed as cell-based. To be noted: for IC50: read-out: IC50, CA P90A virus.
Series [13] has as its system HIV-1JR-FLEnv infected U87.CD4.CCR5 cells. Kind of series: Q-PCR analysis of viral DNA. It is filed as cell-based. The conditions noted are these: CX06 15 μM.
The next series relates to U87.CD4. cells. It is filed as cell-based, human.
In series [14] the test system is HIV-1JR-FL envelope pseudotyped virus. Kind of series: Single-round infection assay, early-stage events. To be noted: compound present at infection of target cells, luciferase.
The test system of a further series is HIV-1 93MW965. Nature of the series: Replication of primary isolate in PBMCs. It is filed as cell-based. To be noted: read-out: IC50 HIV-1 93MW965 Clade C; primary human PBMCs.
The next series concerns HIV-1 92RW025. Nature of the series: Replication of primary isolate in PBMCs. The series is classed as cell-based. To be noted: read-out: IC50 HIV-1 92RW025 Clade A; primary human PBMCs.
The test system of another series is HIV-1 JR-CSF. Kind of series: Replication of primary isolate in PBMCs. The series is classed as cell-based. To be noted: read-out: IC50 HIV-1 JR-CSF Clade B; primary human PBMCs.
Series [15] concerns the target HIV-1 NL4-3 disulfide stabilized CA hexamer (HIV-1 NL4-3). Kind of series: SPR. A general note: In SPR one partner is held on a chip, and binding of the other changes the refractive index at the surface.
Where [16] appears, read: Human immunodeficiency virus 1, PBMC.

In the case of `CC(C)c1nc2c(n1CC(=O)NC(Cc1ccccc1)C(=O)N(C)c1ccccc1)CCCC2` (stereo not shown) [CX03, 2-(2-(2-isopropyl-4,5,6,7-tetrahydro-1H-benzo[d]imidazol-1-yl)acetamido)-N-methyl-N,3-diphenylpropanamide], the IC50 in [1] (setting [16]) is 5.9 ± 0.9 µM. Also, the “Therapeutic Index (CC50/IC50)” value in the series on PBMCs is recorded as above 16.9. This compound also had a CC50 in series [2] above 100 µM.
The matching figures for `CN(C(=O)C(Cc1ccccc1)NC(=O)Cc1cnn(C(F)F)c1)c1ccccc1` (stereo not shown) [CX04, 2-(2-(1-(difluoromethyl)-1H-pyrazol-4-yl)acetamido)-N-methyl-N,3-diphenylpropanamide]: 17.1 ± 2.7 µM, above 5.84 and above 100 µM.
For the compound `CN(C(=O)C(Cc1ccccc1)NC(=O)Cc1cnn(C)c1C(F)(F)F)c1ccccc1` (stereo not shown) [CX05, N-methyl-2-(2-(1-methyl-5-(trifluoromethyl)-1H-pyrazol-4-yl)acetamido)-N,3-diphenylpropanamide], the IC50 in [1] (setting [16]) was 18 ± 4.6 µM. Moreover, the “Therapeutic Index (CC50/IC50)” value with PBMCs is recorded as above 5.58. Besides, the CC50 in series [2] was above 100 µM.
Regarding `CCn1ncc(CC(=O)NC(Cc2ccccc2)C(=O)N(C)c2ccccc2)c1C(F)F` (stereo not shown) [CX06, 2-(2-(5-(difluoromethyl)-1-ethyl-1H-pyrazol-4-yl)acetamido)-N-methyl-N,3-diphenylpropanamide], the “Fold increase, CA K70A virus” value in series [3] (IC50 relative to wild-type) amounted to 1.03. In addition, the IC50 in series [3] is 3.2 ± 0.3 µM; in series [1] (setting [16]), 5.9 ± 1 µM; in series [5] it was 3.1 ± 0.5 µM; in series [7] it was 2.4 ± 0.7 µM; in series [8] it was 21.4 ± 1.4 µM; in series [11], 4.3 ± 0.5 µM. Further, the IC50 in [12] is 3.1 ± 0.5 µM. Further, the “Nuclear import of INsfGFP complexes” value in series [4] is listed as “efficiently inhibited the appearance of INsfGFP spots in the nucleus”. Moreover, the “Fold increase, Wild-type virus” value in series [5] (IC50 relative to wild-type) turned out to be 1. Moreover, the “Viral production, p24 content” value in series [6] is reported as “decreasing the amount of virus released from the cells”. Also, the “Effect on RT activity in vitro” value at purified recombinant RT is reported as “no effect on RT activity”. Further, the Cytotoxicity result in the series with 293T cells and in the series on U87.CD4. cells was “not cytotoxic” throughout. In addition, the “Fold increase, CA N74D virus” value in series [7] (IC50 relative to wild-type) was found to be 0.8. Further, the “Fold increase, CA Q63A virus” value in series [8] (IC50 relative to wild-type) was 6.9. In addition, the “Time of addition at which compound is effective” value in [9] is listed as at most 6 hours post-infection. Moreover, the “Inhibition of AMLV Env pseudotyped HIV-1 infection” value in series [10] is reported as “almost identical potency as when the HIV-1JR-FLEnv was used”. Moreover, at HIV-1 CA, the “Effect on capsid assembly, turbidity at 350 nm” value was “reduced the multimerization of HIV-1 CA”. Besides, the “Fold increase, CA N57A virus” value in [11] (IC50 relative to wild-type) was 1.4. Moreover, in series [12] (IC50 relative to wild-type), the “Fold increase, CA P90A virus” value is reported as 1. The 2-LTR circles entry in series [13] (24 h) is listed as “significantly affected”. The “Early RT products (RU5)” value in [13] (48 h) was “slightly diminished”. The “Integrated pro-virus (Alu-PCR)” value in series [13] (48 h) was “significantly affected”. Moreover, the “Late RT products (U5Ψ)” value in series [13] (48 h) was “significantly affected”. The “Therapeutic Index (CC50/IC50)” value with PBMCs is on record as above 17.0. The compound also returned a CC50 in series [2] above 100 µM.
As to `Cc1ccnc2c1NC(=O)c1cccnc1N2C1CC1` [Nevirapine], the “Nuclear import of INsfGFP complexes” value in series [4] is “without effect”.
Turning to `Cc1[nH]c2ccccc2c1CC(=O)N[C@@H](Cc1ccccc1)C(=O)N(C)c1ccccc1` [PF-74, reference compound], the IC50 in series [3] (single-round infection) was found to be 0.25 ± 0.08 µM; in [1] (over the three isolates tested, PBMCs) it was 0.9 ± 0.5 µM; in series [5] (single-round infection) it was 0.22 ± 0.05 µM; in the series on HIV-1 93MW965, 0.6 ± 0.1 µM; in the series with HIV-1 92RW025, 1.5 ± 0.9 µM; in [7] (single-round infection) it was 0.5 ± 0.1 µM. For the same compound, the 50% inhibitory concentration (IC50) was 0.6 ± 0.2 µM in the series with HIV-1 JR-CSF, 0.4 ± 0.05 µM in series [8] (single-round infection), 0.25 ± 0.04 µM in [11] (single-round infection) and 0.21 ± 0.04 µM in series [12] (single-round infection). In addition, in series [4], the “Nuclear import of INsfGFP complexes” value is given as “efficiently inhibited the appearance of INsfGFP spots in the nucleus”. For the same compound, the “Effect on early-stage events, infectivity of target cells” value in series [14] is “dual-stage inhibition profile”. At purified recombinant RT, the “Effect on RT activity in vitro” value is “no effect on RT activity”. Further, it took 90.5 ± 5.9 µM to reach half-maximal cytotoxicity in the series with PBMCs (MTS assay, PBMCs) (CC50).
For the compound “NUP153 1407-1423 peptide (from UniProt P49790 1407-1423)”, in series [15], the Kd stood at 202 µM.

What is called IC50 is the concentration that inhibits the measured activity by half. What is called CC50 is the concentration at which the toxic effect on the cells reaches its halfway point. Read a low CC50 as greater toxicity to the cells. A word on the Kd: it is the concentration at which binding is half-saturated. A lower Kd goes with tighter binding.
